Source: patent US7544468B2, “Simultaneous collection of DNA and non-nucleic analytes” (Orasure Technologies, Inc., priority 1997, dated 2009)
Structures can show the parent of a compound that is named as a salt. Where two headings read alike, the source gives them in different places.

How the values were obtained:
[1] = Single dose study: intravenous cocaine, detection in oral fluid and urine by STC assay and GC/MS; format: in vivo, human
Protocol: A total of 10 volunteers received 10 or 25 mg of intravenous cocaine in a controlled environment. Oral fluid and urine specimens were collected over 0-130 hours after dose. Oral fluid specimens (400 µL) were added to the collection pad and diluted into the EPISCREEN™ Control Matrix. Samples were then tested using the STC assay and GC/MS. The results were platted over time for each patient. The oral fluid and urine results were compared using similar points on the curve. For all volunteers, regardless of the dose, the cocaine concentrations in oral fluid were detectable 5 minutes after dosing. For the subject who received 10 mg, oral fluid cocaine levels were no longer detectable after 25 minutes. For the remaining nine subjects who received 25 mg intravenous cocaine, drug levels in oral fluids were detectable after dosing for up to 3-6 hours. The length of time detectable drug concentrations were present in urine varied greatly. […] This variability could be attributed to a number of factors, including the volume of urine collected and the sensitivity of the cutoff used. In general, however, positive results were obtained in the subjects for up to 58 hours after dosing.

[2] = cited from earlier work
[3] = cited from earlier work; remark: listed apart in the source

COC(=O)[C@H]1[C@@H](OC(=O)c2ccccc2)C[C@@H]2CC[C@H]1N2C [Cocaine, benzyolmethylecgonine]
time after dosing at which cocaine concentrations in oral fluid were detectable ([1]; all volunteers, 10 or 25 mg intravenous): 5 min
time drug levels in oral fluids were detectable after dosing ([1]; nine subjects, 25 mg intravenous): 3 to 6 h
time after which oral fluid cocaine levels were no longer detectable ([1]; subject who received 10 mg intravenous): 25 min

CN[C@@H](C)Cc1ccccc1 [Methamphetamine, methylamphetamine hydrochloride]
found unchanged in urine ([2]; acid urine): up to 76%
found unchanged in urine ([2]; alkaline urine): 2%
excreted in the urine unchanged ([2]; normal conditions): up to 43%
time detected in oral fluid ([2]; oral fluid, depends on dose and rate of saliva flow): ≤ 50 h
time detection in urine is successful following use ([2]; urine): 24 to 48 h

CCCCCc1cc(O)c2c(c1)OC(C)(C)[C@@H]1CCC(C)=C[C@@H]21 [THC, Tetrahydrocannabinol]
persistence in saliva ([3]; saliva, after use, depends on pH and rate of saliva flow): ≤ 14 h
persistence in urine ([3]; urine, depending upon the frequency of use): up to 30 days
